Reference: patent US20250041387A1, “POLYPEPTIDE SEQUENCE OF KDM6B AND APPLICATION OF KDM6B IN REGULATING AND CONTROLLING FUNCTION OF MESENCHYMAL STEM CELL” (BEIJING STOMATOLOGICAL HOSPITAL, CAPITAL MEDICAL UNIVERSITY, priority 2021, published 2025)

Experiments:
[1] = test system: stem cells from apical papilla; experiment: Alizarin red staining and calcium quantification in SCAPs; format: cell-based, human; conditions: SCAPs treated with polypeptide, 2 weeks of odontogenic induction, FIG. 8F, G
Procedure: (§1) Result of ALP activity was calculated according to Y/incubation time/protein concentration. • (3) Alizarin red staining • 1) After two weeks of osteogenic induction, the culture medium was discarded. The cells were washed three times with PBS pre-cooled at 4° C., and fixed with 70% ethanol at 4° C. for 1 hour. • 2) The cells were washed 2 times with double distilled water, and stained with 40 mM alizarin red solution (pH 4.2) at room temperature for 10 minutes. The staining was observed by naked eyes. • 3) The cells were washed 3 times with double-distilled water. • (4) Determination of Ca^2+ concentration
(§2) To quantitatively determine the concentration of calcium, the cells were added with 10% cetyl pyridinium chloride for dissolution for 30 minutes at room temperature. The OD value was measured at 562 nm using a spectrophotometer, and the calcium ion concentration of the samples was calculated according to the standard curve of calcium ion concentration, with the total protein concentration as an internal reference.

[2] = test system: bone marrow mesenchymal stem cells; experiment: Alizarin red staining and calcium quantification in BMSCs; format: cell-based, human; conditions: 2 weeks in osteogenic induction culture medium, FIG. 4E, F
Procedure: as §1, §2

[3] = target: KDM6B/WDR5 protein complex (Homo sapiens, UniProt P61964); experiment: Co-IP of KDM6B/WDR5 complex in bone marrow mesenchymal stem cells; format: cell-based; parameters: endogenous in cells; host or cells: bone marrow mesenchymal stem cells; conditions: FIG. 3C
Procedure: Protein was extracted from cells of knockout group and overexpression group using IP lysate. The knockout group cells SCAPs-Scramsh and SCAPs-KDM6Bsh, SCAPs-Scramsh and SCAPs-WDR5sh, BMSCs-Scramsh and BMSCs-WDR5sh were added with KDM6B antibody, WDR5 antibody, and IgG antibody, respectively, and then rotated on a shaker at 4° C. overnight. On the next day, the cells were added with Protein A/G beads and rotated on a rotary shaker at 4° C. for 2 hours. A complex of protein-antibody-agarose bead was formed, and the formation of a protein complex of KDM6B and WDR5WB was detected by WB. The overexpression group cells SCAPs-Vector, SCAPs-HA-KDM6B, SCAPs-HA-KDM6B-mut102, and SCAPs-HA-KDM6B-mut114 were added with ProteinA/G beads with HA antibody, and cells SCAPs Vector and SCAPs-Myc-WDR5 were added with ProteinA/G beads with Myc antibody. All cells were incubated overnight to form a complex of protein-antibody-agarose bead. The formation of a protein complex of KDM6B and WDR5 was detected by WB method. • (2) Grouping: Input group (loading amount of 25 μg); antibody group (loading amount of 800 μg, 2 μg of antibody); IgG group (loading amount of 800 μg, 2 μg of antibody). Samples were diluted with lysate. • (3) Preparation of protein A/G beads
The protein A/G beads were washed 4 times with PBS, and centrifuged at 2000 g for 2 minutes. The supernatant was carefully collected, and added with PBS to achieve a content of protein A/G beads of 50%. 30 μL of protein A/G beads was added to each tube, and rotated at 4 degrees overnight. • (4) The samples were centrifuged at 5000 rpm for 30 s at 4° C., and washed 4-5 times with PBS by inverted up and down. Then the samples were centrifuged, and the supernatant was discarded. The samples were added with 30 μL of 2× loading buffer, and placed at 100° C. for 5 minutes. • (5) The supernatant was subjected to electrophoresis.

[4] = test system: telomerase reverse transcriptase; experiment: ELISA assay of telomerase reverse transcriptase in BMSCs; format: cell-based, human; conditions: FIG. 4A
Procedure: (§3) • (1) Pre-detection preparation: A standard curve was calculated and plotted using a standard concentration gradient of 400 ng/mL, 200 ng/ml, 100 ng/ml, 50 ng/mL, 25 ng/ml, 12.5 ng/mL, 6.25 ng/mL, and 0 ng/mL. • (2) 100 μL of the standards and samples were added to each well of a 96-well plate. The plate was covered with a provided sealing film, and incubated at 37° C. for 2 hours. The name of the sample was noted on the surface of the sealing film. • (3) The sample in each well was discarded and spin-dried without washing. • (4) 100 μL of Biotin-antibody (1×) was added to each well. The plate was covered with a sealing film, and incubated at […] for 1 hour. If Biotin-antibody (1×) appeared cloudy, Biotin-antibody was warmed to room temperature and stirred gently until clear. • (5) The sample in each well was discarded. Each well was added with 200 μL of Wash Buffer using a multichannel pipette and left to stand for 2 minutes for washing. This process was repeated twice for a total of three times of washing. Complete removal of liquid at each step was critical for good performance. After the last time of washing, the Wash Buffer was discarded, and the 96-well plate was turned upside down and dried with a clean paper. • (6) 100 μL of HRP-avidin (1×) was added to each well. The 96-well microtiter plate was covered with a new sealing film and incubated at 37° C. for 1 hour. • (7) The process of discarding samples and washing in […] was repeated 5 times. • (8) 90 μL of TMB Substrate was added to each well. The plate was incubated in the dark at 37° C. for 15-30 minutes. 50 μL of Stop Solution was added to each well, and the plate was gently taped to mix solution evenly. • (9) The optical density of each well was detected at 450 nm within 5 min using a microtiter plate reader.

[5] = test system: telomerase reverse transcriptase; experiment: ELISA assay of telomerase reverse transcriptase in SCAPs; format: cell-based, human; conditions: SCAPs treated with polypeptide, FIG. 8B
Procedure: as §3

[6] = test system: senescent bone marrow mesenchymal stem cells; experiment: ALP activity of senescent BMSCs of aged mice; format: cell-based, C57BL/6 mice; conditions: 3 days of osteogenic induction, FIG. 5B
Procedure: • (1) Osteogenic culture medium was purchased from Invitrogen, USA. • (2) Quantification of alkaline phosphatase (ALP) activity • 1) After 3 days of osteogenic induction, the culture medium was discarded, and the cells were washed with PBS twice. • 2) The cells were added with 500 μL of lysis buffer, and incubated at 37° C. for 15 minutes. • 3) The cells were scraped, transferred into a 1.5 mL EP tube, and centrifuged at 14000 rpm at 4° C. for 10 minutes. The supernatant was transferred into a new EP tube to measure the protein concentration, and the procedure was the same as that in Western blot. • 4) The capsule from the alkaline phosphatase kit (Stock substrate Sol.) was dissolved with 5 mL of distilled water under vigorous shaking, and mixed well. • 5) 50 μL of ALP buffer was added to 50 μL of Stock substrate Sol to obtain a mixture. 100 μL of the mixture was added to each well in a 96-well plate, then added with 10 μL of sample, and mixed well. A blank well without sample added was set for zero adjustment. • 6) The plate was incubated at 37° C. for 15 minutes, and the OD value was measured at 405 nm.
as §1

[7] = test system: senescent mouse bone marrow mesenchymal stem cells; experiment: Senescence markers β-gal and P16 in senescent mouse BMSCs; format: cell-based

Row | Substance | mineralization capacity, quantification of calcium ion [1] | mineralization capacity, quantification of calcium ion ([1]; listed as 114 peptide) | mineralization capacity, quantification of calcium ion [2] | mineralization capacity, quantification of calcium ion ([2]; listed as 114 peptide) | opening/blocking of the binding of KDM6B/WDR5 protein complex (Co-IP) [3] | expression of telomerase reverse transcriptase (ELISA) [4] | expression of telomerase reverse transcriptase (ELISA) ([4]; listed as 114 peptide) | expression of telomerase reverse transcriptase (ELISA) [5] | expression of telomerase reverse transcriptase (ELISA) ([5]; listed as 114 peptide) | ALP activity [6] | ALP activity ([6]; listed as 114-peptide) | expression of senescence markers of β-gal and P16 [7] | mineralization capacity, quantification of calcium ion ([1]; listed as 102 peptide) | mineralization capacity, quantification of calcium ion ([2]; listed as 102 peptide) | ALP activity ([6]; listed as 102-peptide)
1 | FITC-(Acp)-ADLTISHCAADVVRAYGRKKRRQRRR [peptide 114] | significantly higher | 1.619 | significantly higher | 1.807 | could effectively open the binding | promote the expression | 0.03888 | promoted the expression | 0.05168 | promoted | 7.612 | reduce |  |  | 
2 | FITC-(Acp)-KEKSRRVLGNLDLQSYGRKKRRQRRR [peptide 102] | significantly higher |  | significantly higher |  | could effectively open the binding | 0.02236 |  | 0.03331 |  | promoted |  | reduce | 1.637 | 1.584 | 6.951
